Measurements as given in ChEMBL document CHEMBL4041467, “Synthesis of novel 15-membered 8a-azahomoerythromycin A acylides: Consequences of structural modification at the C-3 and C-6 position on antibacterial activity” (Eur J Med Chem, 2017).
In brackets after ≈: the same amount, converted by molar mass.

How the values were obtained:
Assay type in all cases: functional
Streptococcus pyogenes [1] = assay: Antibacterial activity against constitutively macrolide/lincosamide/streptogramin B-resistant Streptococcus pyogenes by agar microdilution method
Streptococcus pyogenes [2] = assay: Antibacterial activity against Mef-mediated macrolide efflux resistant Streptococcus pyogenes by agar microdilution method
Streptococcus pyogenes [3] = assay: Antibacterial activity against erythromycin susceptible Streptococcus pyogenes by agar microdilution method
Streptococcus pneumoniae [4] = assay: Antibacterial activity against constitutively macrolide/lincosamide/streptogramin B-resistant Streptococcus pneumoniae by agar microdilution method
Staphylococcus aureus [5] = assay: Antibacterial activity against constitutively macrolide/lincosamide/streptogramin B-resistant Staphylococcus aureus by agar microdilution method
Streptococcus pneumoniae [6] = assay: Antibacterial activity against Mef-mediated macrolide efflux resistant Streptococcus pneumoniae by agar microdilution method
Streptococcus pneumoniae [7] = assay: Antibacterial activity against erythromycin susceptible Streptococcus pneumoniae by agar microdilution method
Haemophilus influenzae = assay: Antibacterial activity against Haemophilus influenzae by agar microdilution method
Staphylococcus aureus [8] = assay: Antibacterial activity against erythromycin susceptible Staphylococcus aureus by agar microdilution method
Staphylococcus aureus [9] = assay: Antibacterial activity against inducibly macrolide/lincosamide/streptogramin B-resistant Staphylococcus aureus by agar microdilution method

## C=CCO[C@]1(C)C[C@@H](C)NC(=O)[C@H](C)[C@@H](O)[C@](C)(O)[C@@H](CC)OC(=O)[C@H](C)[C@@H](OC(=O)CCN2CCN(c3ccc(F)cc3)CC2)[C@H](C)[C@H]1O[C@@H]1O[C@H](C)C[C@H](N(C)C)[C@H]1O
Streptococcus pyogenes [1]
  MIC: > 64 µg/mL
Streptococcus pyogenes [2]
  MIC: 2 µg/mL (≈ 2.31 µM)
Streptococcus pyogenes [3]
  MIC: 1 µg/mL (≈ 1.16 µM)
Streptococcus pneumoniae [4]
  MIC: > 64 µg/mL
Staphylococcus aureus [5]
  MIC: > 64 µg/mL
Streptococcus pneumoniae [6]
  MIC: 2 µg/mL (≈ 2.31 µM)
Streptococcus pneumoniae [7]
  MIC: 0.25 µg/mL (≈ 0.289 µM)
Haemophilus influenzae
  MIC: 16 µg/mL (≈ 18.5 µM)
Staphylococcus aureus [8]
  MIC: 2 µg/mL (≈ 2.31 µM)
Staphylococcus aureus [9]
  MIC: 4 µg/mL (≈ 4.62 µM)

## C=CCO[C@]1(C)C[C@@H](C)NC(=O)[C@H](C)[C@@H](O)[C@](C)(O)[C@@H](CC)OC(=O)[C@H](C)[C@@H](OC(=O)CCNC(C)Cc2ccccc2)[C@H](C)[C@H]1O[C@@H]1O[C@H](C)C[C@H](N(C)C)[C@H]1O (stereo partly specified)
Streptococcus pyogenes [1]
  MIC: > 64 µg/mL
Streptococcus pyogenes [2]
  MIC: 2 µg/mL (≈ 2.44 µM)
Streptococcus pyogenes [3]
  MIC: 1 µg/mL (≈ 1.22 µM)
Streptococcus pneumoniae [4]
  MIC: > 64 µg/mL
Staphylococcus aureus [5]
  MIC: > 64 µg/mL
Streptococcus pneumoniae [6]
  MIC: 2 µg/mL (≈ 2.44 µM)
Streptococcus pneumoniae [7]
  MIC: 1 µg/mL (≈ 1.22 µM)
Haemophilus influenzae
  MIC: 8 µg/mL (≈ 9.76 µM)
Staphylococcus aureus [8]
  MIC: 4 µg/mL (≈ 4.88 µM)
Staphylococcus aureus [9]
  MIC: 4 µg/mL (≈ 4.88 µM)

## C=CCO[C@]1(C)C[C@@H](C)NC(=O)[C@H](C)[C@@H](O)[C@](C)(O)[C@@H](CC)OC(=O)[C@H](C)[C@@H](OC(=O)CCNCCNc2cc3c(cc2F)c(=O)c(C(=O)O)cn3C2CC2)[C@H](C)[C@H]1O[C@@H]1O[C@H](C)C[C@H](N(C)C)[C@H]1O
Streptococcus pyogenes [1]
  MIC: 16 µg/mL (≈ 16.2 µM)
Streptococcus pyogenes [2]
  MIC: 0.5 µg/mL (≈ 0.505 µM)
Streptococcus pyogenes [3]
  MIC: 0.25 µg/mL (≈ 0.252 µM)
Streptococcus pneumoniae [4]
  MIC: 2 µg/mL (≈ 2.02 µM)
Staphylococcus aureus [5]
  MIC: > 64 µg/mL
Streptococcus pneumoniae [6]
  MIC: 0.5 µg/mL (≈ 0.505 µM)
Streptococcus pneumoniae [7]
  MIC: 0.25 µg/mL (≈ 0.252 µM)
Haemophilus influenzae
  MIC: 2 µg/mL (≈ 2.02 µM)
Staphylococcus aureus [8]
  MIC: 0.25 µg/mL (≈ 0.252 µM)
Staphylococcus aureus [9]
  MIC: 0.25 µg/mL (≈ 0.252 µM)

## C=CCO[C@]1(C)C[C@@H](C)NC(=O)[C@H](C)[C@@H](O)[C@](C)(O)[C@@H](CC)OC(=O)[C@H](C)[C@@H](OC(=O)CCNC(C)C(=O)Nc2ccc3ncccc3c2)[C@H](C)[C@H]1O[C@@H]1O[C@H](C)C[C@H](N(C)C)[C@H]1O (stereo partly specified)
Streptococcus pyogenes [1]
  MIC: 4 µg/mL (≈ 4.44 µM)
Streptococcus pyogenes [2]
  MIC: 0.25 µg/mL (≈ 0.278 µM)
Streptococcus pyogenes [3]
  MIC: ≤ 0.125 µg/mL
Streptococcus pneumoniae [4]
  MIC: 8 µg/mL (≈ 8.89 µM)
Staphylococcus aureus [5]
  MIC: > 64 µg/mL
Streptococcus pneumoniae [6]
  MIC: 0.25 µg/mL (≈ 0.278 µM)
Streptococcus pneumoniae [7]
  MIC: ≤ 0.125 µg/mL
Haemophilus influenzae
  MIC: 4 µg/mL (≈ 4.44 µM)
Staphylococcus aureus [8]
  MIC: 0.5 µg/mL (≈ 0.555 µM)
Staphylococcus aureus [9]
  MIC: 0.5 µg/mL (≈ 0.555 µM)

## C=CCO[C@]1(C)C[C@@H](C)NC(=O)[C@H](C)[C@@H](O)[C@](C)(O)[C@@H](CC)OC(=O)[C@H](C)[C@@H](OC(=O)CCNC(C)Cc2ccc(OC)cc2)[C@H](C)[C@H]1O[C@@H]1O[C@H](C)C[C@H](N(C)C)[C@H]1O (stereo partly specified)
Streptococcus pyogenes [1]
  MIC: > 64 µg/mL
Streptococcus pyogenes [2]
  MIC: 4 µg/mL (≈ 4.71 µM)
Streptococcus pyogenes [3]
  MIC: 0.25 µg/mL (≈ 0.294 µM)
Streptococcus pneumoniae [4]
  MIC: > 64 µg/mL
Staphylococcus aureus [5]
  MIC: > 64 µg/mL
Streptococcus pneumoniae [6]
  MIC: 2 µg/mL (≈ 2.35 µM)
Streptococcus pneumoniae [7]
  MIC: 0.5 µg/mL (≈ 0.588 µM)
Haemophilus influenzae
  MIC: 16 µg/mL (≈ 18.8 µM)
Staphylococcus aureus [8]
  MIC: 2 µg/mL (≈ 2.35 µM)
Staphylococcus aureus [9]
  MIC: 2 µg/mL (≈ 2.35 µM)

## C=CCO[C@]1(C)C[C@@H](C)NC(=O)[C@H](C)[C@@H](O)[C@](C)(O)[C@@H](CC)OC(=O)[C@H](C)[C@@H](OC(=O)CCNCCCc2ccccc2)[C@H](C)[C@H]1O[C@@H]1O[C@H](C)C[C@H](N(C)C)[C@H]1O
Streptococcus pyogenes [1]
  MIC: > 64 µg/mL
Streptococcus pyogenes [2]
  MIC: 8 µg/mL (≈ 9.76 µM)
Streptococcus pyogenes [3]
  MIC: 2 µg/mL (≈ 2.44 µM)
Streptococcus pneumoniae [4]
  MIC: > 64 µg/mL
Staphylococcus aureus [5]
  MIC: > 64 µg/mL
Streptococcus pneumoniae [6]
  MIC: 4 µg/mL (≈ 4.88 µM)
Streptococcus pneumoniae [7]
  MIC: 1 µg/mL (≈ 1.22 µM)
Haemophilus influenzae
  MIC: 16 µg/mL (≈ 19.5 µM)
Staphylococcus aureus [8]
  MIC: 2 µg/mL (≈ 2.44 µM)
Staphylococcus aureus [9]
  MIC: 4 µg/mL (≈ 4.88 µM)

## C=CCO[C@]1(C)C[C@@H](C)NC(=O)[C@H](C)[C@@H](O)[C@](C)(O)[C@@H](CC)OC(=O)[C@H](C)[C@@H](OC(=O)CCNC(C)C(=O)Nc2ccc([N+](=O)[O-])cc2)[C@H](C)[C@H]1O[C@@H]1O[C@H](C)C[C@H](N(C)C)[C@H]1O (stereo partly specified)
Streptococcus pyogenes [1]
  MIC: > 64 µg/mL
Streptococcus pyogenes [2]
  MIC: 0.5 µg/mL (≈ 0.559 µM)
Streptococcus pyogenes [3]
  MIC: ≤ 0.125 µg/mL
Streptococcus pneumoniae [4]
  MIC: > 64 µg/mL
Staphylococcus aureus [5]
  MIC: > 64 µg/mL
Streptococcus pneumoniae [6]
  MIC: 0.25 µg/mL (≈ 0.28 µM)
Streptococcus pneumoniae [7]
  MIC: ≤ 0.125 µg/mL
Haemophilus influenzae
  MIC: 8 µg/mL (≈ 8.95 µM)
Staphylococcus aureus [8]
  MIC: 1 µg/mL (≈ 1.12 µM)
Staphylococcus aureus [9]
  MIC: 1 µg/mL (≈ 1.12 µM)

## NCCNc1cc2c(=O)c(C(=O)O)cn(C3CC3)c2cc1Cl
Streptococcus pyogenes [3]
  MIC: > 64 µg/mL
Streptococcus pneumoniae [7]
  MIC: > 64 µg/mL
Haemophilus influenzae
  MIC: > 64 µg/mL
Staphylococcus aureus [8]
  MIC: > 64 µg/mL

## C=CCO[C@]1(C)C[C@@H](C)NC(=O)[C@H](C)[C@@H](O)[C@](C)(O)[C@@H](CC)OC(=O)[C@H](C)[C@@H](OC(=O)C=C)[C@H](C)[C@H]1O[C@@H]1O[C@H](C)C[C@H](N(C)C)[C@H]1O
Streptococcus pyogenes [1]
  MIC: > 64 µg/mL
Streptococcus pyogenes [2]
  MIC: > 64 µg/mL
Streptococcus pyogenes [3]
  MIC: 16 µg/mL (≈ 23.4 µM)
Streptococcus pneumoniae [4]
  MIC: > 64 µg/mL
Staphylococcus aureus [5]
  MIC: > 64 µg/mL
Streptococcus pneumoniae [6]
  MIC: > 64 µg/mL
Streptococcus pneumoniae [7]
  MIC: 16 µg/mL (≈ 23.4 µM)
Haemophilus influenzae
  MIC: > 64 µg/mL
Staphylococcus aureus [8]
  MIC: 32 µg/mL (≈ 46.7 µM)
Staphylococcus aureus [9]
  MIC: > 64 µg/mL

## CC[C@H]1OC(=O)[C@H](C)C(=O)[C@H](C)[C@@H](O[C@@H]2O[C@H](C)C[C@H](N(C)C)[C@H]2O)[C@](C)(OCC=Cc2cnc3ccccc3c2)C[C@@H](C)C(=O)[C@H](C)[C@H]2NC(=O)O[C@@]21C [CETHROMYCIN]
Streptococcus pyogenes [1]
  MIC: 1 µg/mL (≈ 1.31 µM)
Streptococcus pyogenes [2]
  MIC: ≤ 0.125 µg/mL
Streptococcus pyogenes [3]
  MIC: ≤ 0.06 µg/mL
Streptococcus pneumoniae [4]
  MIC: ≤ 0.125 µg/mL
Staphylococcus aureus [5]
  MIC: > 64 µg/mL
Streptococcus pneumoniae [7]
  MIC: ≤ 0.06 µg/mL
Haemophilus influenzae
  MIC: 2 µg/mL (≈ 2.61 µM)
Staphylococcus aureus [8]
  MIC: ≤ 0.125 µg/mL
Staphylococcus aureus [9]
  MIC: 0.25 µg/mL (≈ 0.326 µM)

## O=C(O)c1cn(C2CC2)c2cc(N3CCNCC3)c(F)cc2c1=O [CIPROFLOXACIN]
Streptococcus pyogenes [1]
  MIC: 0.5 µg/mL (≈ 1.51 µM)
Streptococcus pyogenes [2]
  MIC: ≤ 0.125 µg/mL
Streptococcus pyogenes [3]
  MIC: 2 µg/mL (≈ 6.04 µM)
Streptococcus pneumoniae [4]
  MIC: 0.25 µg/mL (≈ 0.754 µM)
Streptococcus pneumoniae [6]
  MIC: 0.25 µg/mL (≈ 0.754 µM)
Streptococcus pneumoniae [7]
  MIC: ≤ 0.125 µg/mL
Haemophilus influenzae
  MIC: ≤ 0.125 µg/mL
Staphylococcus aureus [8]
  MIC: ≤ 0.125 µg/mL
